Measurements from article PMC3506176 (Nature chemical biology, 2010).

Tests used:
oxytocin receptor [1] = molecular target: T1, oxytocin receptor (Rattus norvegicus, UniProt P70536); format: binding; details: mammary gland patches; excess of oxytocin 1 μM
T1 sequence (P70536 1-388): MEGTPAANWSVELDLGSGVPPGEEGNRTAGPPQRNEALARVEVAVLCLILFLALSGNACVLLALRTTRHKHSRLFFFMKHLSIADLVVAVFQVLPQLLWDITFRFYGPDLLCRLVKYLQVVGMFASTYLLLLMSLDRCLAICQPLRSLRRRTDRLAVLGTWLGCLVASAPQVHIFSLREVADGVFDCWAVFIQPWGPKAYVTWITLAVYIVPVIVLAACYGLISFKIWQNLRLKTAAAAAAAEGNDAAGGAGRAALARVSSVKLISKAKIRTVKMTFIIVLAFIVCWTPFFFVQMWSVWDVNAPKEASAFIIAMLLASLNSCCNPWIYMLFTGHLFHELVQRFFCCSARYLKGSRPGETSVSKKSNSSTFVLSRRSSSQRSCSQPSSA

oxytocin receptor [2] = molecular target: T2, oxytocin receptor (Homo sapiens, UniProt P30559); assay: Binding affinity of ligands for the oxytocin receptor
T2 sequence (P30559 1-389): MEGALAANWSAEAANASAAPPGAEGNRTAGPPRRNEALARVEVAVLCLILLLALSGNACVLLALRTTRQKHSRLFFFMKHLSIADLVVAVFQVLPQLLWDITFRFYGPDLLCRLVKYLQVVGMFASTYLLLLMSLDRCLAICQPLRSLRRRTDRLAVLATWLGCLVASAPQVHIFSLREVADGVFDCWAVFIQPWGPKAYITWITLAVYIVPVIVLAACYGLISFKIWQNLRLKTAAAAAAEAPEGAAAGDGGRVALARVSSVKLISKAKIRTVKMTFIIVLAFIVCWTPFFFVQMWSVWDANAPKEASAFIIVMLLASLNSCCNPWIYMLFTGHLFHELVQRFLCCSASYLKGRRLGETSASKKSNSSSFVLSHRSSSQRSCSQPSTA

dopamine D2 receptors = dopamine D2 receptors (Homo sapiens, UniProt P14416); format: binding; details: read-out: IC50, inhibition of the FRET signal by increasing concentrations of NAPS; Cos7 cells transfected with D2 receptors; NAPS(Lumi4-Tb) (8) 1 nM and NAPS(d1) (9) 5 nM
Chain of dopamine D2 receptors (P14416 whole entry): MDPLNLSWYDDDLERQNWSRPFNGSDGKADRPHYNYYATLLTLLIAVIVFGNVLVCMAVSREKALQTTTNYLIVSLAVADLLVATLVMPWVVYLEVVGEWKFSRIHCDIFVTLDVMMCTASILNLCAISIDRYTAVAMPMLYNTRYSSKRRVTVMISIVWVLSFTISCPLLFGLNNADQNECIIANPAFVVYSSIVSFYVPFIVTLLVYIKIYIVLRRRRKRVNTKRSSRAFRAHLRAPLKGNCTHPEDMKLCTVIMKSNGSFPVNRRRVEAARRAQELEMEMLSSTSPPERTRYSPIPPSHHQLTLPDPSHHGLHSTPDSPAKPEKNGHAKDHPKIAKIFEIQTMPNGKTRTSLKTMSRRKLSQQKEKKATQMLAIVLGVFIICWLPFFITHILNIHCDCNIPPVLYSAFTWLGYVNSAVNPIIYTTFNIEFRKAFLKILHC

glucagon-like peptide 1 [GLP1]
Effect on the FRET signal between donor and acceptor antagonists (oxytocin receptor [1]): not affected
Affinity for the oxytocin receptor (in words) (oxytocin receptor [2]): no affinity

HO-[Thr[4],Orn[8](Eu-PBBP)]VT [compound 5]
Affinity for the oxytocin receptor (in words) (oxytocin receptor [2]): high affinities

d(CH2)5[DTyr(Et)2,Ile4,Eda(Alexa-647)9]VP [compound 14]
Affinity for the oxytocin receptor (in words) (oxytocin receptor [2]): poor affinity

HO-[Thr[4],Orn[8](Alexa-647)]VT [compound 6]
Affinity for the oxytocin receptor (in words) (oxytocin receptor [2]): high affinities

Nc1ccc(CCN2CN(c3ccccc3)C3(CCN(CCCC(=O)c4ccc(F)cc4)CC3)C2=O)cc1 [NAPS, N-(p-aminophenethyl)spiperone]
IC50 (dopamine D2 receptors): 1.9 nM
